According to patent US20100172854A1, “ANTIBACTERIAL FORMULATIONS” (priority 2007, published 2010):
≈ marks a conversion by molar mass, not a printed value.

Experiments:
[1] = test system: P. acnes PRP-023; assay: Agar dilution MIC assay; assay type: cell-based, Propionibacterium acnes; details: Cutibacterium acnes, PRP023, resistance phenotype MLSK
Protocol: (§1) The propionibacteria were cultured and maintained on Wilkins-Chalgren Anaerobe Medium (agar and broth) at pH 6.0; all cultures were incubated anaerobically at 37° C. for 72 hours.
(§2) This is a standard international method for quantitatively assessing the antimicrobial activity of a compound in a solid medium. The test compound was prepared to 40× the highest concentration required (e.g. 10 mg/ml for a final concentration of 250 μg/ml) and a series of doubling dilutions were performed in a suitable solvent. A set amount of these antimicrobial stock solutions was then added to molten agar medium (ca. 55° C.), mixed thoroughly, poured into sterile Petri dishes and allowed to cool/set. The culture medium was as described above.
(§3) A Multipoint™ Inoculator (AQS Manufacturing Ltd, UK) was used to inoculate the plates by spotting the inocula onto the surface of the agar, delivering approximately 1 to 2 μl per spot (yielding 10^5 CFU (colony forming units) per spot).
(§4) The plate(s) were then incubated under the conditions described above, following which they were examined visually for signs of bacterial growth. The MIC value was ascertained when there was a marked reduction in, or total loss of, growth on the test plate at the lowest concentration as compared to that of the growth on the control plate.
(§5) The assays were conducted in triplicate and included a positive control (culture medium, diluting solvent and inoculum).

[2] = test system: P. acnes PRP-003; assay: Agar dilution MIC assay; assay type: cell-based, Propionibacterium acnes; details: Cutibacterium acnes, PRP003, resistance phenotype Tet
Protocol: as §1, §2, §3, §4, §5

[3] = test system: P. acnes PRP-008; assay: Agar dilution MIC assay; assay type: cell-based, Propionibacterium acnes; details: Cutibacterium acnes, PRP008, resistance phenotype Clin
Protocol: as §1, §2, §3, §4, §5

[4] = test system: P. acnes PRP-102; assay: Agar dilution MIC assay; assay type: cell-based, Propionibacterium acnes; details: Cutibacterium acnes, PRP102, resistance phenotype Tet/MLS
Protocol: as §1, §2, §3, §4, §5

[5] = test system: P. acnes PRP-053; assay: Agar dilution MIC assay; assay type: cell-based, Propionibacterium acnes; details: Cutibacterium acnes, PRP053, resistance phenotype Tet/MLS
Protocol: as §1, §2, §3, §4, §5

[6] = test system: P. acnes PRP-068; assay: Agar dilution MIC assay; assay type: cell-based, Propionibacterium acnes; details: Cutibacterium acnes, PRP068, resistance phenotype Ery
Protocol: as §1, §2, §3, §4, §5

[7] = test system: P. acnes PRP-026; assay: Agar dilution MIC assay; assay type: cell-based, Propionibacterium acnes; details: Cutibacterium acnes, PRP026, resistance phenotype MLS
Protocol: as §1, §2, §3, §4, §5

[8] = test system: P. acnes PRP-101; assay: Agar dilution MIC assay; assay type: cell-based, Propionibacterium acnes; details: Cutibacterium acnes, PRP101, resistance phenotype Tet/MLS
Protocol: as §1, §2, §3, §4, §5

[9] = test system: S. aureus ATCC 12602; assay: MIC assay; assay type: cell-based; details: Staphylococcus aureus, ATCC12602
Protocol: (§6) The staphylococci were cultured and maintained on Mueller-Hinton Medium (agar and broth) at pH 7.2; cultures were incubated aerobically at 37° C. for 19-20 hours.
(§7) This is a standard international method for quantitatively assessing the antimicrobial activity of a compound in a liquid medium. The method used a sterile 96-well microtitre plate, capable of holding about 200 μl of liquid per well. The wells contained liquid culture medium and ranges of decreasing concentrations of the relevant test compound in doubling dilutions (e.g. 1000, 500, 250, 125 . . . μg/ml, etc. down to 0.49 μg/ml). The culture media were as described above.
(§8) The wells were inoculated with a liquid suspension of freshly grown micro-organism and incubated under the conditions described above. After incubation, the microtitre plate was examined visually (with the aid of a light box) for cloudiness in each well, which would indicate microbial growth. The MIC value was recorded as the lowest concentration of test compound required to inhibit microbial growth, i.e. the lowest concentration for which the liquid in the well remained clear.
(§9) The assays included both negative (culture medium with no micro-organisms) and positive (culture medium plus diluting solvent plus micro-organism) controls.

[10] = test system: S. aureus ATCC 12601; assay: MIC assay; assay type: cell-based; details: Staphylococcus aureus, ATCC12601
Protocol: as §6, §7, §8, §9

[11] = test system: S. aureus NCTC 12981; assay: MIC assay; assay type: cell-based; details: Staphylococcus aureus, NCTC12981
Protocol: as §6, §7, §8, §9

[12] = test system: Staphylococcus cohnii ATCC 29974; assay: MIC assay; assay type: cell-based; details: ATCC29974
Protocol: as §6, §7, §8, §9

[13] = test system: Staphylococcus haemolyticus ATCC 29970; assay: MIC assay; assay type: cell-based; details: ATCC29970
Protocol: as §6, §7, §8, §9

[14] = test system: S. aureus CPHL EMRSA 16; assay: MIC assay; assay type: cell-based; details: Staphylococcus aureus
Protocol: as §6, §7, §8, §9

[15] = test system: Staphylococcus warneri ATCC 27836; assay: MIC assay; assay type: cell-based; details: ATCC27836
Protocol: as §6, §7, §8, §9

[16] = test system: S. aureus CPHL EMRSA 15; assay: MIC assay; assay type: cell-based; details: Staphylococcus aureus
Protocol: as §6, §7, §8, §9

[17] = test system: S. saprophyticus NCTC 7292; assay: MIC assay; assay type: cell-based; details: Staphylococcus saprophyticus, NCTC7292
Protocol: as §6, §7, §8, §9

[18] = test system: S. epidermidis NCTC 11047; assay: MIC assay; assay type: cell-based; details: Staphylococcus epidermidis, NCTC11047
Protocol: as §6, §7, §8, §9

[19] = test system: S. aureus ATCC 12605; assay: MIC assay; assay type: cell-based; details: Staphylococcus aureus, ATCC12605
Protocol: as §6, §7, §8, §9

[20] = test system: S. aureus CPHL GISA HO41340156; assay: MIC assay; assay type: cell-based; details: Staphylococcus aureus
Protocol: as §6, §7, §8, §9

[21] = test system: S. aureus NCTC 12493; assay: MIC assay; assay type: cell-based; details: Staphylococcus aureus, NCTC12493, resistance phenotype Met
Protocol: as §6, §7, §8, §9

[22] = test system: S. aureus CPHL VISA Mu50; assay: MIC assay; assay type: cell-based; details: Staphylococcus aureus, resistance phenotype Van (intermediate)
Protocol: as §6, §7, §8, §9

[23] = test system: S. aureus ATCC 12600-U; assay: MIC assay; assay type: cell-based; details: Staphylococcus aureus, ATCC12600
Protocol: as §6, §7, §8, §9

[24] = test system: Staphylococcus hominis ATCC 27844; assay: MIC assay; assay type: cell-based; details: ATCC27844
Protocol: as §6, §7, §8, §9

[25] = test system: Staphylococcus aureus ATCC 29213; assay: MIC assay; assay type: cell-based; details: ATCC29213, S. aureus ATCC 29213
Protocol: as §6, §7, §8, §9

Work on `Cc1cc(Cc2cc(C)cc(C(C)(C)C)c2O)c(O)c(C(C)(C)C)c1` [AO 2246, 2,2′-methylene-bis(4-methyl-6-tert-butylphenol)] yielded an MIC [1] of 3.9 µg/mL (≈ 11.5 µM), an MIC [2] of 3.9 µg/mL (≈ 11.5 µM) and an MIC [3] of 1.95 µg/mL (≈ 5.73 µM). It also gave an MIC [4] of 3.9 µg/mL (≈ 11.5 µM), an MIC [5] of 3.9 µg/mL (≈ 11.5 µM) and an MIC [6] of 3.9 µg/mL (≈ 11.5 µM). The MIC [7] was 3.9 µg/mL (≈ 11.5 µM), the MIC [8] was 3.9 µg/mL (≈ 11.5 µM) and the MIC [9] was 1.95 µg/mL (≈ 5.73 µM). It also gave an MIC [10] of 1.95 µg/mL (≈ 5.73 µM), an MIC [11] of 1.95 µg/mL (≈ 5.73 µM) and an MIC [12] of 3.9 µg/mL (≈ 11.5 µM). The MIC [13] was 3.9 µg/mL (≈ 11.5 µM), the MIC [14] was 1.95 µg/mL (≈ 5.73 µM) and the MIC [15] was 15.6 µg/mL (≈ 45.8 µM). It also gave an MIC [16] of 1.95 µg/mL (≈ 5.73 µM), an MIC [17] of 3.9 µg/mL (≈ 11.5 µM) and an MIC [18] of 3.9 µg/mL (≈ 11.5 µM). The MIC [19] was 1.95 µg/mL (≈ 5.73 µM), the MIC [20] was 1.95 µg/mL (≈ 5.73 µM) and the MIC [21] was 0.98 µg/mL (≈ 2.88 µM). For the same molecule, the MIC [22] was 0.98 µg/mL (≈ 2.88 µM), the MIC [23] was 0.98 µg/mL (≈ 2.88 µM) and the MIC [24] was 7.8 µg/mL (≈ 22.9 µM). For the same molecule, the MIC [25] was 3.9 µg/mL (≈ 11.5 µM).
